Values joined by “and” are separate entries in the source; they are usually repeats but may differ in a detail not shown here. Equal entries are not always repeated. Toxic doses and inconclusive results are not listed. No stated cut-off is given here; in the data, active means T/C of 150% or more; inactive means T/C below 125%.
Test system: L1210 leukemia ip in BDF1 mice, survival T/C
Experiment: NCI In Vivo Anticancer Drug Screen. Data for tumor model L1210 Leukemia (intraperitoneal) in B6D2F1 (BDF1) mice
Settings: endpoint: mean survival time, higher = longer survival
Summary of the method: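 Each compound was tested against a transplantable tumor grown in mice. The endpoint was survival, with treated animals benchmarked against vehicle controls as a simple ratio.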

[1] = dose: 50.0 mg/kg/injection, schedule: Q04DX003 (ip), vehicle: saline with Tween-80
[2] = dose: 400.0 mg/kg/injection, schedule: Q04DX003 (ip), vehicle: saline with Tween-80
[3] = dose: 100.0 mg/kg/injection, schedule: Q01DX009 (ip), vehicle: Klucel (hydroxypropylcellulose) (HPC)
[4] = dose: 100.0 mg/kg/injection, schedule: Q04DX003 (ip), vehicle: Klucel (hydroxypropylcellulose) (HPC)
[5] = dose: 200.0 mg/kg/injection, schedule: Q01DX009 (ip), vehicle: Klucel (hydroxypropylcellulose) (HPC)
[6] = dose: 200.0 mg/kg/injection, schedule: Q04DX003 (ip), vehicle: Klucel (hydroxypropylcellulose) (HPC)
[7] = dose: 400.0 mg/kg/injection, schedule: Q01DX009 (ip), vehicle: Klucel (hydroxypropylcellulose) (HPC)
[8] = dose: 400.0 mg/kg/injection, schedule: Q04DX003 (ip), vehicle: Klucel (hydroxypropylcellulose) (HPC)
[9] = dose: 100.0 mg/kg/injection, schedule: Q04DX003 (ip), vehicle: saline with Tween-80
[10] = dose: 100.0 mg/kg/injection, schedule: Q04DX003 (ip), vehicle: saline

Measured: T/C

C=C1CC23CC[C@H]4[C@@](C)(CCC[C@@]4(C)C(=O)OC4OC(CO)C(O)C(O)C4O)[C@@H]2CC[C@@]1(OC1OC(CO)C(O)C(O)C1OC1OC(CO)C(O)C(O)C1O)C3 (stereo not given in full)
inactive: dose: 100.0 mg/kg/injection, schedule: Q01DX001 (ip), vehicle: saline with Tween-80 101 % of control | dose: 200.0 mg/kg/injection, schedule: Q01DX001 (ip), vehicle: saline with Tween-80 93 % of control | dose: 400.0 mg/kg/injection, schedule: Q01DX001 (ip), vehicle: saline with Tween-80 96 % of control

CC(C)CCCC(C)C1CCC2C3CC=C4CC(C5C(=O)NC(=O)NC5=O)CCC4(C)C3CCC12C (stereo not given)
inactive: dose: 12.5 mg/kg/injection, schedule: Q04DX003 (ip), vehicle: saline with Tween-80 96 % of control | dose: 25.0 mg/kg/injection, schedule: Q04DX003 (ip), vehicle: saline with Tween-80 96 % of control | [1] 87 % of control | [2] 88 % of control

CC(=O)N(C)c1ccccc1
inactive: dose: 100.0 mg/kg/injection, schedule: Q04DX002 (ip), vehicle: saline 99 % of control

CCN(CCCl)c1ccc(N=Nc2cc(Cl)ccc2Cl)cc1
inactive: [3] 103 % of control | [4] 104 % of control | [5] 115 % of control | [6] 97 % of control | [7] 105 % of control | [8] 104 % of control

Nc1ncnc(N)c1NC(=O)c1ccc(-c2ccccc2)cc1
inactive: [9] 91 % of control | [2] 86 % of control

CN(Cc1cnc2nc(N)c([N+](=O)[O-])c(N)c2n1)c1ccc(C(=O)NC(CCC(=O)O)C(=O)O)cc1 (stereo not given)
inactive: dose: 100.0 mg/kg/injection, schedule: Q04DX002 (ip), vehicle: sodium bicarbonate 89 % of control | dose: 200.0 mg/kg/injection, schedule: Q04DX002 (ip), vehicle: sodium bicarbonate 99 % of control

COC(=O)/C(C)=C\C=C(/C)C(=O)OC
inactive: [10] 100 % of control | dose: 200.0 mg/kg/injection, schedule: Q04DX003 (ip), vehicle: saline 116 % of control | dose: 400.0 mg/kg/injection, schedule: Q04DX003 (ip), vehicle: saline 97 % of control

ClCCCNCc1ccccc1
inactive: dose: 25.0 mg/kg/injection, schedule: Q01DX009 (ip), vehicle: saline 111 % of control | dose: 50.0 mg/kg/injection, schedule: Q01DX009 (ip), vehicle: saline 97 % of control | dose: 100.0 mg/kg/injection, schedule: Q01DX009 (ip), vehicle: saline 97 % of control | [10] 94 % of control

O=C1CCS(=O)(=O)CC1
inactive: [1] 92 % of control | [9] 90 % of control | dose: 200.0 mg/kg/injection, schedule: Q04DX003 (ip), vehicle: saline with Tween-80 89 % of control

CCCCc1ccc(-n2c(C)c(COC(=O)NC)c(COC(=O)NC)c2C)cc1
inactive: dose: 3.12 mg/kg/injection, schedule: Q01DX009 (ip), vehicle: Klucel (hydroxypropylcellulose) (HPC) 122 % of control | dose: 6.25 mg/kg/injection, schedule: Q01DX009 (ip), vehicle: Klucel (hydroxypropylcellulose) (HPC) 122 % of control

Cc1cc(C(=O)O)c(C)n1-c1ccccc1
inactive: dose: 75.0 mg/kg/injection, schedule: Q01DX009 (ip), vehicle: Klucel (hydroxypropylcellulose) (HPC) 100 % of control | dose: 150.0 mg/kg/injection, schedule: Q01DX009 (ip), vehicle: Klucel (hydroxypropylcellulose) (HPC) 95 % of control | dose: 300.0 mg/kg/injection, schedule: Q01DX009 (ip), vehicle: Klucel (hydroxypropylcellulose) (HPC) 92 % of control

CC(=O)c1ccc(Br)c([N+](=O)[O-])c1
inactive: dose: 100.0 mg/kg/injection, schedule: Q01DX001 (ip), vehicle: saline 95 % of control | dose: 200.0 mg/kg/injection, schedule: Q01DX001 (ip), vehicle: saline 98 % of control | dose: 400.0 mg/kg/injection, schedule: Q01DX001 (ip), vehicle: saline 103 % of control

COC1CCC(/C(C#N)=C/c2ccco2)CC1 (stereo not given)
inactive: dose: 100.0 mg/kg/injection, schedule: Q04DX002 (ip), vehicle: saline with Tween-80 97 % of control and 89 % of control | dose: 200.0 mg/kg/injection, schedule: Q04DX002 (ip), vehicle: saline with Tween-80 94 % of control and 99 % of control | dose: 800.0 mg/kg/injection, schedule: Q04DX002 (ip), vehicle: saline with Tween-80 103 % of control

Cc1cc(C)c(NC(=O)Nc2ccccc2)c(C)c1
inactive: [3] 96 % of control | [4] 98 % of control | [5] 104 % of control | [6] 98 % of control | [7] 95 % of control | [8] 101 % of control
